Test results from article PMC6976883, “Detection in two hospitals of transferable ceftazidime-avibactam resistance in Klebsiella pneumoniae due to a novel VEB β-lactamase variant with a Lys234Arg substitution, Greece, 2019” (Eurosurveillance, 2020).

Target: T1, VEB-1 (Escherichia coli, UniProt Q7BVU7)
T1 construct: gene blaVEB; natural plasmid-encoded enzyme, no tags; crude cell extracts of E. coli K12 26R793 transconjugants TrcS-2865 (VEB-1) and TrcE-1037 (VEB-25, GenBank MN862699), which also contain OXA-10 and TEM-1
Experiment: spectrophotometric inhibition of ceftazidime hydrolysis
Type: biochemical

NC(=O)[C@@H]1CC[C@@H]2CN1C(=O)N2OS(=O)(=O)O [avibactam]
IC50: 0.1 nM
